How the values were obtained:
[1] = test system: rhesus monkeys; assay: Intravenous drug self-administration (heroin or cocaine), fixed-ratio 30 schedule; assay type: in vivo; conditions: for duration of action on responding for heroin (in words): after a single administration; for responding for cocaine: naltrexone 0.032 mg/kg, MCAM 0.32 mg/kg, cocaine 0.032 mg/kg/infusion; for responding for heroin: session following s.c. pretreatment, heroin 0.0032 mg/kg/infusion
[2] = target: T1, μ opioid receptors (Mus musculus, UniProt P42866); conditions: cited from earlier work
T1 construct: host or cells: live mouse (endogenous receptor)
T1 sequence (P42866 whole entry): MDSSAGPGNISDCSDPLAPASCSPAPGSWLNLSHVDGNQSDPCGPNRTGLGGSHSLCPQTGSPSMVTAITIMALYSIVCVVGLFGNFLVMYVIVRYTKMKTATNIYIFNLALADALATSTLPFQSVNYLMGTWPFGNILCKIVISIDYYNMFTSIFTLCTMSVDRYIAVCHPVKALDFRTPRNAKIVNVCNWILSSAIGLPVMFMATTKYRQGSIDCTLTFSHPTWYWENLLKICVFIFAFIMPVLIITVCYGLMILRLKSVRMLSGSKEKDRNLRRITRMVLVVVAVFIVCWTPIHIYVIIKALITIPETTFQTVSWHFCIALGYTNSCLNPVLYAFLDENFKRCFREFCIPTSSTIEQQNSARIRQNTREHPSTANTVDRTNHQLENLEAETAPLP

[3] = test system: rhesus monkeys; assay: Heroin-induced respiratory depression, head plethysmograph, seated monkeys; conditions: for duration in reversing and protecting against heroin-induced respiratory depression: FIG. 2; for antagonism of respiratory-depressant effects of heroin: day after (24 hours after) antagonist administration

Structure (SMILES) | duration of action on responding for heroin (in words) [1] | time responding for heroin remained decreased ([1]; after a single injection of antagonist) | responding for cocaine [1] | responding for heroin [1] | antagonism of morphine ([2]; 48 hours later) | effect on antinociception of 1000 mg/kg morphine ([2]; one hour after administration) | reversal of opioid agonist side effects (respiratory depression) ([3]; 0.32 mg/kg subcutaneously, monkeys received heroin 0.1-1.0 mg/kg) | respiratory-depressant effects of heroin after antagonist ([3]; 4 days after administration of antagonist) | duration in reversing and protecting against heroin-induced respiratory depression [3] | antagonism of respiratory-depressant effects of heroin [3] | decrease of respiration by heroin ([3]; monkeys breathing air, largest heroin dose tested, s.c.) | duration of action on responding for heroin (in words) ([1]; listed as Naltrexone)
Cc1ccc(/C=C/C(=O)N[C@@]23CCC(=O)[C@@H]4Oc5c(O)ccc6c5[C@@]42CCN(CC2CC2)[C@@H]3C6)cc1 [MCAM, methocinnamox] | more than one week | up to 8 days | did not affect responding for cocaine | decreased responding for heroin | marked antagonism of morphine | prevented any antinociceptive effect | reversed | not affected | long duration | continued to antagonize |  | 
CC(=O)Oc1ccc2c3c1O[C@H]1[C@@H](OC(C)=O)C=C[C@H]4[C@@H](C2)N(C)CC[C@@]341 [heroin, reference compound] |  |  |  |  |  |  |  |  |  |  | ≤ 70 % of control | 
C=CCN1CC[C@]23c4c5ccc(O)c4O[C@H]2C(=O)CC[C@@]3(O)[C@H]1C5 [naloxone, reference compound] |  |  |  |  |  |  |  |  | short duration |  |  | 
O=C1CC[C@@]2(O)[C@H]3Cc4ccc(O)c5c4[C@@]2(CCN3CC2CC2)[C@H]1O5 [naltrexone, reference compound] | less than one day |  | did not affect responding for cocaine | decreased responding for heroin |  |  |  |  |  | no longer effective |  | returning to baseline levels the next day
